± gives the expanded uncertainty stated by the source.
Tests used:
[1] = 298.15 K; 101.33 kPa; Liquid; Vibrating tube method
[2] = excess molar enthalpy (molar enthalpy of mixing); xn = mol fraction of the nth substance listed; details: 298.15 K, 101 kPa, Liquid, Flow calorimetry

**Q.** Which mass density [1] does the source give for `C=C(C)CC(C)(C)C` [2,4,4-trimethyl-1-pentene] here?
**A.** 710.7 ± 0.2 kg/m3

**Q.** Which excess molar enthalpy ([2]; x2 = 0.023) does the source give for `C=C(C)CC(C)(C)C` [2,4,4-trimethyl-1-pentene] + CO here?
**A.** 0.0571 ± 0.00287 kcal/mol

**Q.** And the excess molar enthalpy ([2]; x2 = 0.1)?
**A.** 0.107 ± 0.00526 kcal/mol

**Q.** What about the excess molar enthalpy ([2]; x2 = 0.198) of the same molecule?
**A.** 0.125 ± 0.00621 kcal/mol

**Q.** What about the excess molar enthalpy ([2]; x2 = 0.301) of the same molecule?
**A.** 0.138 ± 0.00669 kcal/mol

**Q.** What about the excess molar enthalpy ([2]; x2 = 0.398) of the same molecule?
**A.** 0.14 ± 0.00669 kcal/mol

**Q.** And the excess molar enthalpy ([2]; x2 = 0.498)?
**A.** 0.14 ± 0.00669 kcal/mol

**Q.** What about the excess molar enthalpy ([2]; x2 = 0.598) of the same molecule?
**A.** 0.135 ± 0.00645 kcal/mol

**Q.** And the excess molar enthalpy ([2]; x2 = 0.698)?
**A.** 0.122 ± 0.00598 kcal/mol

**Q.** What about the excess molar enthalpy ([2]; x2 = 0.798) of the same molecule?
**A.** 0.102 ± 0.00502 kcal/mol

**Q.** And the excess molar enthalpy ([2]; x2 = 0.899)?
**A.** 0.0674 ± 0.00335 kcal/mol

**Q.** For `C1CCCCC1` [cyclohexane], which mass density [1] is on record?
**A.** 773.5 ± 0.2 kg/m3

**Q.** For `C1CCCCC1` [cyclohexane] + CC(C)O, which excess molar enthalpy ([2]; x2 = 0.0995) is on record?
**A.** 0.124 ± 0.00598 kcal/mol

**Q.** And the excess molar enthalpy ([2]; x2 = 0.2009)?
**A.** 0.168 ± 0.00813 kcal/mol

**Q.** What about the excess molar enthalpy ([2]; x2 = 0.3009) of the same molecule?
**A.** 0.191 ± 0.00932 kcal/mol

**Q.** What about the excess molar enthalpy ([2]; x2 = 0.4014) of the same molecule?
**A.** 0.199 ± 0.00956 kcal/mol

**Q.** And the excess molar enthalpy ([2]; x2 = 0.5016)?
**A.** 0.191 ± 0.00932 kcal/mol

**Q.** And the excess molar enthalpy ([2]; x2 = 0.6011)?
**A.** 0.173 ± 0.00837 kcal/mol

**Q.** What about the excess molar enthalpy ([2]; x2 = 0.701) of the same molecule?
**A.** 0.143 ± 0.00693 kcal/mol

**Q.** What about the excess molar enthalpy ([2]; x2 = 0.8005) of the same molecule?
**A.** 0.105 ± 0.00526 kcal/mol

**Q.** What about the excess molar enthalpy ([2]; x2 = 0.9005) of the same molecule?
**A.** 0.0571 ± 0.00287 kcal/mol

**Q.** With `CO` [methanol] as the molecule, how does the mass density [1] read?
**A.** 786.2 ± 0.2 kg/m3

**Q.** For `CC(C)O` [propan-2-ol], which mass density [1] is on record?
**A.** 780.8 ± 0.2 kg/m3
